target: T1, Full length human recombinant HDAC6 protein (Homo sapiens, UniProt Q9UBN7); test: In vitro histone deacetylase assay: enzymatic HDAC6 electrophoretic mobility shift assay; type: biochemical; conditions: peptide substrate RHKK(Ac)-NH2 2 μM, enzyme 1 nM, 25° C., 12 concentrations; read-out: HDAC6 activity range (IC50)
T1 construct: made in house
T1 sequence (Q9UBN7 1-1215): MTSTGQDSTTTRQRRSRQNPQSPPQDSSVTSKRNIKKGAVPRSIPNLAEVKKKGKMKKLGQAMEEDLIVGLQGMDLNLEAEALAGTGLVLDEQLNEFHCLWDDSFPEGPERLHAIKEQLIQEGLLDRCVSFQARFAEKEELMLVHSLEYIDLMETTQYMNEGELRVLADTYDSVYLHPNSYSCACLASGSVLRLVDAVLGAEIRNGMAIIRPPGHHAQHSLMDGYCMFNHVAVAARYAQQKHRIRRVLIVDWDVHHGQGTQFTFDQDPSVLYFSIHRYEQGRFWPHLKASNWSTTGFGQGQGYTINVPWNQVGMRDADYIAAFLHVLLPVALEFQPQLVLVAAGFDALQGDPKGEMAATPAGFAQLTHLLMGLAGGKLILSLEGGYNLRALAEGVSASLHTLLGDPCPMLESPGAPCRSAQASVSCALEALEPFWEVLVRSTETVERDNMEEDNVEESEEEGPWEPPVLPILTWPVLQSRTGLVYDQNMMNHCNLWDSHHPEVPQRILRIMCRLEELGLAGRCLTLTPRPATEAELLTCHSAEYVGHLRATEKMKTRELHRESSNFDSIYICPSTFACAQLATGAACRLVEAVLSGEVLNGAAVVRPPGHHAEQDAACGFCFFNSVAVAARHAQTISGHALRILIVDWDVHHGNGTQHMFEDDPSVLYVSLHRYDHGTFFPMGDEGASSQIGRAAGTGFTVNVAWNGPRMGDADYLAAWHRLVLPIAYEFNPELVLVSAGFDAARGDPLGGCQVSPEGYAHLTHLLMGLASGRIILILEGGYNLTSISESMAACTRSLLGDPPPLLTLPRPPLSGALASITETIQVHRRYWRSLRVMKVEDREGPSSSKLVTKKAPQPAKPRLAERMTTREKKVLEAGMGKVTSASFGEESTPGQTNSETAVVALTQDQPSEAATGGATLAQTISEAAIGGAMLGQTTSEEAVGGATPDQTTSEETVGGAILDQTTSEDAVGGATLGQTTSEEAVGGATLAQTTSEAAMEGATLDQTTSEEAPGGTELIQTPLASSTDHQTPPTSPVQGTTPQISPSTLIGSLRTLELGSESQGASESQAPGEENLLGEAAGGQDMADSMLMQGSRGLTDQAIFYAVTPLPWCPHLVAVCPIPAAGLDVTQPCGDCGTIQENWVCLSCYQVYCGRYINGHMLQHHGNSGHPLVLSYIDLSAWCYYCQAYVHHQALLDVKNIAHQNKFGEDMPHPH
Procedure: The enzymatic HDAC6 assay was performed using electrophoretic mobility shift assay. Full length human recombinant HDAC6 protein was expressed in baculoviral system and purified by affinity chromatography. The enzymatic reactions were assembled in 384 well plates in a total volume of 25 μL in a reaction buffer composing: 100 mM HEPES, pH 7.5, 25 mM KCl, 0.1% bovine serum albumin, 0.01% Triton X-100, 1% DMSO (from compounds) 2 μM of the fluorescently labeled peptide substrate and enzyme. The enzyme was added at a final concentration of 1 nM. The peptide substrate RHKK(Ac)-NH2 was used. The compounds were tested at 12 concentrations spaced by 3× dilution intervals. Negative control samples (0%-inhibition in the absence of inhibitor) and positive control samples (100%-inhibition) were assembled in replicates of four in each assay plate. The reactions were incubated at 25° C. and quenched by the addition of 45 μL of termination buffer (100 mM HEPES, pH 7.5, 0.01% Triton X-100, 0.05% SDS).
The terminated assay plates were analyzed on LabChip® 3000 microfluidic electrophoresis instrument (Perkin Elmer/Caliper Life Sciences). The fluorescence intensity of the electrophoretically separated de-acetylated product and substrate peptide was measured. Activity in each sample was determined as the product to sum ratio (PSR): P/(S+P), where P is the peak height of the product peptide and S is the peak height of the substrate peptide. Percent inhibition (Pinh) is determined using the following equation:
Pinh=(PSR0%−PSRinh)/(PSR0%−PSR100%)*100, where PSRinh is the product sum ratio in the presence of inhibitor, PSR0% is the average product sum ration in the absence of inhibitor and PSR100% is the average product sum ratio in 100%-inhibition control samples. The IC50 values of inhibitors were determined by fitting the %-inhibition curves with 4 parameter dose-response model using XLfit 4 software.
As set forth in Table-7, below, IC50 values are defined as follows: IC50≤0.01 μM (+++); IC50>0.01 μM and ≤0.05 μM (++); IC50>0.05 μM (+).

| SMILES | IC50 |
| --- | --- |
| CN1CC[C@@]2(Cc3ccc(C(=O)NO)cc3C2)C1=O [Compound I-2, (S)—N-hydroxy-1′-methyl-2′-oxo-1,3-dihydrospiro[indene-2,3′-pyrrolidine]-5-carboxamide] | 10 to 50 nM |
| CN1CC[C@@]2(Cc3ccc(C(=O)NO)cc3C2)C1 [Compound I-25, (S)—N-hydroxy-1′-methyl-1,3-dihydrospiro[indene-2,3′-pyrrolidine]-5-carboxamide] | > 50 nM |
| O=C(NO)c1ccc2c(c1)C[C@]1(CCN(C(=O)c3ccccc3)C1)C2 [Compound I-31, (S)-1′-benzoyl-N-hydroxy-1,3-dihydrospiro[indene-2,3′-pyrrolidine]-5-carboxamide] | ≤ 10 nM |
| CCN1CC[C@]2(Cc3ccc(C(=O)NO)cc3C2)C1=O [Compound I-5, (R)-1′-ethyl-N-hydroxy-2′-oxo-1,3-dihydrospiro[indene-2,3′-pyrrolidine]-5-carboxamide] | 10 to 50 nM |
| O=C(NO)c1ccc2c(c1)C[C@]1(CCN(c3ccncc3)C1=O)C2 [Compound I-22, (S)—N-hydroxy-2′-oxo-1′-(pyridin-4-yl)-1,3-dihydrospiro[indene-2,3′-pyrrolidine]-5-carboxamide] | 10 to 50 nM |
| O=C(NO)c1ccc2c(c1)C[C@@]1(CCN(c3ccncc3)C1=O)C2 [Compound I-21, (R)—N-hydroxy-2′-oxo-1′-(pyridin-4-yl)-1,3-dihydrospiro[indene-2,3′-pyrrolidine]-5-carboxamide] | 10 to 50 nM |
| O=C(NO)c1ccc2c(c1)C[C@@]1(CCN(C(=O)c3ccccc3)C1)C2 [Compound I-30, (R)-1′-benzoyl-N-hydroxy-1,3-dihydrospiro[indene-2,3′-pyrrolidine]-5-carboxamide] | ≤ 10 nM |
| O=C(NO)c1ccc2c(c1)C[C@]1(CCN(c3ccccn3)C1=O)C2 [Compound I-20, (S)—N-hydroxy-2′-oxo-1′-(pyridin-2-yl)-1,3-dihydrospiro[indene-2,3′-pyrrolidine]-5-carboxamide] | 10 to 50 nM |
| O=C(NO)c1ccc2c(c1)C[C@@]1(CCN(Cc3ccccc3)C1=O)C2 [Compound I-11, (R)-1′-benzyl-N-hydroxy-2′-oxo-1,3-dihydrospiro[indene-2,3′-pyrrolidine]-5-carboxamide] | ≤ 10 nM |

Source: patent publication US12213969B2, “2-spiro-5- and 6-hydroxamic acid indanes as HDAC inhibitors” (Valo Health, Inc., priority 2016, dated 2025)
